Measurements published in paper PMC9961652 (International Journal of Molecular Sciences, 2023).
Entries after “also recorded” stand apart in the source; their conditions may differ.

Key:
washed human platelets [1] = test: Thromboxane B2 ELISA assay; type: cell-based; settings: different concentrations; thrombin stimulation; Indomethacin 20 µM as comparator
Experimental: (§1) (A–D) Washed human platelets were pre-incubated with 10 µM S-G04 or 20 µM R-G04 for 2 min before being stimulated with Arachidonic Acid (AA), U46619, ADP, or Thrombin. The % platelet aggregation was measured 5 min after agonist stimulation. (E) Washed human platelets were pre-incubated with 10 µM S-G04 or 20 µM R-G04 for 2 min and with Chrono-lume® for 30 s at 37 °C before being stimulated with 0.1 U/mL Thrombin. […] TxB2 formation was determined using a TxB2 ELISA kit. The differences among DMSO, R-G04, and S-G04 were analyzed using t-test, and the results are shown as means ± SDs of three independent experiments. (* p < 0.05, ** p < 0.01, *** p < 0.001, and **** p < 0.0001).
The level of TxB2 was measured with an enzyme immunoassay kit (No. 501020; Cayman Chemical, Ann Arbor, MI, USA) as previously described. […] The reactions were terminated by adding 250 µL of HEPES Tyrode’s buffer (pH 7.4) containing 2 mM EDTA. The platelets were centrifuged for 2 min, and the level of TxB2 in the supernatant was measured with the ELISA kit according to the manufacturer’s instructions.

myosin light chain (MLC) = test: Phosphorylation of myosin light chain (p-MLC), Western blot in collagen-stimulated platelets; type: cell-based, human; settings: different concentrations of R-G04 or S-G04; collagen 1 µg/mL
Experimental: (A,B) Washed human platelets were incubated with collagen (1 µg/mL) for 4 min, and the levels of RhoA-GTP formation were quantified with a GST-Rhotekin effector pull-down assay. The platelets were pre-incubated with 20 µM UC-177618, UC-177619, UC-177628, UC-177629, […], or […] for 2 min before being stimulated with collagen. The addition of ice-cold lysis buffer terminated the reaction. […] Relative amounts of the GTP-bound form of RhoA were quantified with densitometry measurements of total RhoA (T-RhoA) and normalized to untreated platelets. […] The samples were processed for Western blotting and probed for MLC and p-MLC, and phosphorylation was quantified by measuring the densitometry of total MLC (T-MLC). The differences between DMSO- and Rhosin-related compounds were analyzed with t-test, and the results are shown as means ± SDs of three independent experiments. […]
A volume of 250 µL of washed human platelets (2.5 × 10^8/mL) was pre-warmed to 37 °C along with the compounds or DMSO (0.1%) for 2 min before being stimulated with collagen (1 µg/mL) for 4 min. The reactions were terminated by adding 4x Laemmli buffer, and phosphorylated MLC protein was detected with Western blotting as previously reported. Phosphorylation was quantified by measuring the densitometry.

washed human platelets [2] = test: ATP secretion (Chrono-lume) after thrombin stimulation; type: cell-based; settings: 10 µM S-G04 or 20 µM R-G04; thrombin 0.1 U/mL
Experimental: as §1
The in vitro antiplatelet activity of the compounds was assayed on washed human platelets using light transmission aggregometry. Platelet aggregation was performed using a 4-channel Lumi-aggregometer (Chronolog, PA, USA) at 37 °C and stirring speed of 900 rpm. […] The reactions were allowed to proceed for at least 4 min, and the results of platelet aggregation and ATP secretion were determined using Aggrolink software. Platelet aggregation was expressed as the maximum change in the light transmission, where the 100% value corresponded to treatment with the agonist alone. Compounds were evaluated in triplicate at nine compound concentrations ranging from 50 µM to 1 µM. […]

RhoA = tested on: RhoA; design: method as in PMID 22726684, PMID 22956131; settings: cited from earlier work
[3] = Pharmacokinetic profile (unpublished data)
RhoA, Rac1 and Cdc42 = tested on: RhoA, Rac1 and Cdc42; design: method as in PMID 22726684, PMID 27681226; settings: cited from earlier work
washed human platelets [4] = test: Wash-out reversibility of inhibition of collagen-induced platelet aggregation; type: cell-based
Experimental: The reversible inhibition of Rhosin in collagen-induced platelet aggregation was assessed with similar wash-out experiments, and this reversible nature of Rhosin makes it a valuable antiplatelet drug candidate (Supporting Information Figure S4A,B). After confirming the structures of the above six active analogs, similar wash-out experiments were performed to compare the reversible function of the active analogs with Rhosin reversibility.

Structure (SMILES) | generation of TxA2, measured as thromboxane B2 (TxB2) (washed human platelets [1]) | phosphorylation of the MLC (myosin light chain (MLC)) | ATP secretion (washed human platelets [2]) | affinity of binding to the Trp58 region of the RhoA surface (RhoA) | pharmacokinetic profile [3] | specificity of inhibition of Rho GTPase activation (RhoA, Rac1 and Cdc42) | reversibility of inhibitory effect after wash-out (washed human platelets [4])
N[C@@H](Cc1c[nH]c2ccccc12)C(=O)N/N=C/c1ccc2nccnc2c1 [S-G04] | dose-dependent inhibition; also recorded: comparable to that of Indomethacin | inhibited the downstream phosphorylation of the MLC | inhibited ATP secretion |  |  |  | 
N[C@H](Cc1c[nH]c2ccccc12)C(=O)N/N=C/c1ccc2nccnc2c1 [R-G04] | dose-dependent inhibition | inhibited the downstream phosphorylation of the MLC | failed to have the same inhibitory effect | micromolar affinity | poor pharmacokinetic profile | specifically inhibits the activation of RhoA but not that of Rac1 and Cdc42 | reversible
